A word on the melting point: it is the temperature, or range, at which the solid turns liquid.

For one data set, the target named is T1, HO-1 (rat spleen) (Rattus norvegicus, UniProt P06762).
T1 construct: Spleen microsomes were used as a source of HO-1; from tissue; host or cells: spleen microsomal fraction of adult male Sprague-Dawley rats
T1 sequence (P06762 1-289): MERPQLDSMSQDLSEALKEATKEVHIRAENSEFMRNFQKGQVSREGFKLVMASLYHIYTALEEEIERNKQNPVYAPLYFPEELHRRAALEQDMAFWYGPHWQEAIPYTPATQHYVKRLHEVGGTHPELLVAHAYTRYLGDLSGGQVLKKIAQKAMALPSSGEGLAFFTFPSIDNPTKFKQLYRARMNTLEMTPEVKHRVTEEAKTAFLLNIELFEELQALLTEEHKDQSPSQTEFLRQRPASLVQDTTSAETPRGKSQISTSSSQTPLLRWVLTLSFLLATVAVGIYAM
Description: HO enzymatic activity, rat spleen microsomal fraction (CO formation from methemalbumin). The format is biochemical. As to the method:
(§1) Incubations for HO activity analysis were done under conditions for which the rate of CO formation (pmol CO×min^−1×mg protein^−1) was linear with respect to time and microsomal protein concentration. Briefly, reaction mixtures (150 μL) consisting of 100 mM phosphate buffer (pH 7.4), 50 μM methemalbumin, and 1 mg/mL protein were pre-incubated with the inhibitors at final concentrations ranging from 0.1-100 μM for 10 minutes at 37° C. Reactions were initiated by adding NADPH at a final concentration of 1 mM and incubations were performed for an additional 15 minutes at 37° C.
(§2) Incubations for HO activity analysis were done under conditions for which the rate of CO formation (pmol CO/mg protein/minute) was linear with respect to time and microsomal protein concentration. Briefly, reaction mixtures (150 μL) consisting of 100 mM phosphate buffer (pH 7.4), 50 μM methemalbumin and 1 mg/mL protein were pre-incubated with the vehicle (ethanol or water in which the inhibitors were dissolved), or inhibitors at final concentrations ranging from 0.1-1000 μM for 10 minutes at 37° C. Reactions were initiated by adding β-NADPH at a final concentration of 1 mM and incubations were carried out for an additional 15 minutes at 37° C. Reactions were stopped by instantly freezing the reaction mixture on pulverized dry ice and CO formation was measured by gas chromatography using a TA 3000R Process Gas Analyzer (Trace Analytical/Ametek, Newark, Del., USA).
(§3) The values on the abscissa represent the decimal logarithm of the inhibitor's concentration (in μM), whereas the values of the activity on the ordinate are expressed as a percentage of the control experiments without inhibitor.
(§4) The IC50 values for the replicate experiments were employed to generate the reported standard deviation value.

Another data set has as its target T2, HO-2 (rat brain) (Rattus norvegicus, UniProt P23711).
T2 construct: brain microsomes were used as a source of HO-2; from tissue; host or cells: brain microsomal fraction of adult male Sprague-Dawley rats
T2 sequence (P23711 1-315): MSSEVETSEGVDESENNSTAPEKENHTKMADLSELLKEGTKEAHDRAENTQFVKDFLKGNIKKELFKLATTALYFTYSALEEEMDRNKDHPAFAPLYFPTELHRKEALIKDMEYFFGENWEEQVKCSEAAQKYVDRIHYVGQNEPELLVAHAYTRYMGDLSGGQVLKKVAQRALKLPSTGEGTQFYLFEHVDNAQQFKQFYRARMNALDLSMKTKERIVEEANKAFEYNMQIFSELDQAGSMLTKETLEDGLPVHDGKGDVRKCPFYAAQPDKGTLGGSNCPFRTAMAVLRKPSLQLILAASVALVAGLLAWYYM
Kind of data set: HO enzymatic activity, rat brain microsomal fraction (CO formation from methemalbumin). The class given is biochemical. As to the method:
as §1, §2, §3, §4

[1] abbreviates: CO formation from methemalbumin, mean ± SD of replicate experiments, read-out: IC50 HO-1 (rat spleen/μM).
Where [2] appears, read: CO formation from methemalbumin, mean ± SD of replicate experiments, read-out: IC50 HO-2 (rat brain)/μM).
Where [3] appears, read: IC50 HO-1 (rat spleen/μM), average ± SD of replicate experiments.
The mark [4] stands for this setting: IC50 HO-2 (rat brain)/μM), average ± SD of replicate experiments.
[5] abbreviates: average ± SD of replicate experiments, read-out: IC50 HO-1 (rat spleen/μM).
[6] abbreviates: average ± SD of replicate experiments, read-out: IC50 HO-2 (rat brain)/μM).

Where a name gives a salt, the structure may show the parent alone. Read-outs that look alike come from different tables or passages of the source.

`Cl.FC(F)(F)c1ccc(CCCCn2ccnc2)cc1`: the melting point fell in the range of 110 to 111 °C. On to `COC(=O)c1ncn(CC(=O)CCc2ccccc2)n1` [QC-135, 1-(2-Oxo-4-phenyl-butyl)-1H-[1,2,4]triazole-3-carboxylic acid methyl ester], for which the IC50 at HO-1 (rat spleen) (setting [1]) and at HO-2 (rat brain) (setting [2]) was above 100 µM each time. Consider `COC(=O)c1ncnn1CC(=O)CCc1ccccc1` [QC-136, 2-(2-Oxo-4-phenyl-butyl)-2H-[1,2,4]triazole-3-carboxylic acid methyl ester], for which the IC50 at HO-1 (rat spleen) (setting [1]) and at HO-2 (rat brain) (setting [2]) was above 100 µM each time.

Consider `CC(=O)NCCc1c[nH]cn1` [QC-138, N-[2-(1H-Imidazol-4-yl)-ethyl]-acetamide], for which the IC50 on HO-1 (rat spleen) (setting [1]) and on HO-2 (rat brain) (setting [2]) was above 100 µM in each case. On to `O=C(Cn1ccnc1)c1ccccc1` [QC-141, 2-Imidazol-1-yl-1-phenyl-ethanone hydrochloride], for which the figures for the IC50 on HO-1 (rat spleen) (setting [3]) and on HO-2 (rat brain) (setting [4]) were 28 ± 4 µM and above 100 µM, respectively. Regarding `O=C(Cn1ccnc1)c1ccc(Cl)cc1` [QC-142, 1-(4-Chlorophenyl)-2-imidazol-1-yl-ethanone hydrochloride], the IC50 against HO-1 (rat spleen) (setting [3]) was found to be 4 ± 2 µM; against HO-2 (rat brain) (setting [4]), 20 ± 8 µM. For `c1ccc2[nH]c(NCCCCCN3CCCCC3)nc2c1` [QC-144, (1H-Benzoimidazol-2-yl)-(5-piperidin-1-yl-pentyl)-amine], the IC50 on HO-1 (rat spleen) (setting [5]) and on HO-2 (rat brain) (setting [6]) was above 100 µM in each case.

`Nc1nc2cc(OCCCCN3CCCCC3)ccc2[nH]1` [QC-146, 5-(4-Piperidin-1-yl-butoxy)-1H-benzoimidazol-2-ylamine dihydrochloride 3/2 hydrate]: the IC50 on HO-1 (rat spleen) (setting [5]) and at HO-2 (rat brain) (setting [6]) was above 100 µM each time.

For the compound `Cn1c(NCCc2c[nH]cn2)nc2ccccc21` [QC-147, [2-(1H-Imidazol-4-yl)-ethyl]-(1-methyl-1H-benzoimidazol-2-yl)-amine dihydrochloride], the IC50 on HO-1 (rat spleen) (setting [3]) and against HO-2 (rat brain) (setting [4]) was above 100 µM throughout. On to `CCN1CCN(c2nc3ccccc3[nH]2)CC1` [QC-148, 2-(4-Ethyl-piperazin-1-yl)-1H-benzoimidazole dihydrochloride hemihydrate], for which the IC50 on HO-1 (rat spleen) (setting [5]) and at HO-2 (rat brain) (setting [6]) was above 100 µM each time. For `c1ccc2[nH]c(NC3CCC(c4cnc[nH]4)CC3)nc2c1` (centres unmarked) [QC-149, (1H-Benzoimidazol-2-yl)-[4-(3H-imidazol-4-yl)-cyclohexyl]-amine dihydrochloride], the IC50 on HO-1 (rat spleen) (setting [5]) and at HO-2 (rat brain) (setting [6]) was above 200 µM each time.

On to `O=C(CCc1ccccc1)Cn1cnc([N+](=O)[O-])n1` [QC-152, 1-(3-Nitro-[1,2,4]triazol-1-yl)-4-phenyl-butan-2-one], for which the IC50 on HO-1 (rat spleen) (setting [5]) and at HO-2 (rat brain) (setting [6]) was above 100 µM each time.

Take `N#Cc1ncn(CC(=O)CCc2ccccc2)c1C#N` [QC-154, 1-(2-Oxo-4-phenylbutyl)-1H-imidazole-4,5-dicarbonitrile hydrochloride]: the IC50 at HO-1 (rat spleen) (setting [3]) and on HO-2 (rat brain) (setting [4]) was above 100 µM in each case.

As to `CS(=O)(=O)c1ncn(CC(=O)CCc2ccccc2)n1` [QC-155, 1-(3-Methanesulfonyl-[1,2,4]triazol-1-yl)-4-phenyl-butan-2-one], the IC50 at HO-1 (rat spleen) (setting [5]) and on HO-2 (rat brain) (setting [6]) was above 100 µM in each case.

As for `CS(=O)(=O)c1ncnn1CC(=O)CCc1ccccc1` [QC-156, 1-(5-Methanesulfonyl-[1,2,4]triazol-1-yl)-4-phenyl-butan-2-one], the IC50 on HO-1 (rat spleen) (setting [5]) and on HO-2 (rat brain) (setting [6]) was above 100 µM in each case. For the compound `O=C(Cn1cncn1)c1ccccc1` [QC-157, 1-Phenyl-2-[1,2,4]triazol-1-yl-ethanone hydrochloride], the values for the IC50 on HO-1 (rat spleen) (setting [3]) and against HO-2 (rat brain) (setting [4]) were 12 ± 0.9 µM and above 100 µM, respectively. In the same order, the values of `O=C(Cn1cncn1)c1ccc(Cl)cc1` [QC-158, 1-(4-Chlorophenyl)-2-[1,2,4]triazol-1-yl-ethanone hydrochloride] are 2.2 ± 0.5 µM and 122 ± 0.1 µM. For `O=C(Cn1ccnc1)c1ccc([N+](=O)[O-])cc1` [QC-159, 2-Imidazol-1-yl-1-(4-nitro-phenyl)-ethanone hydrochloride], in that order: 2.5 ± 0.2 µM and above 100 µM.

Consider `O=C(CCc1ccccc1)Cn1ccnc1[N+](=O)[O-]` [QC-160, 1-(2-Nitro-imidazol-1-yl)-4-phenyl-butan-2-one hydrochloride], for which the IC50 at HO-1 (rat spleen) (setting [3]) and on HO-2 (rat brain) (setting [4]) was above 100 µM throughout.

Consider `O=C(Cn1ccnc1)c1ccc(Br)cc1` [QC-161, 1-(4-Bromophenyl)-2-imidazol-1-yl-ethanone hydrochloride], for which the IC50 on HO-1 (rat spleen) (setting [3]) is 3.2 ± 0.8 µM; at HO-2 (rat brain) (setting [4]), 14 ± 2 µM. Consider `O=C(Cn1ccnc1)c1ccc2ccccc2c1` [QC-162, 2-Imidazol-1-yl-1-napthalen-2-yl-ethanone hydrochloride], for which the IC50 at HO-1 (rat spleen) (setting [5]) was determined as 1.9 ± 0.1 µM; on HO-2 (rat brain) (setting [6]) it was 12 ± 0.05 µM.

Regarding `COc1ccc(C(=O)Cn2ccnc2)cc1` [QC-163, 2-Imidazol-1-yl-1-(4-methoxyphenyl)-ethanone hydrochloride], the IC50 on HO-1 (rat spleen) (setting [5]) is 32 ± 4 µM; on HO-2 (rat brain) (setting [4]) it was 62 ± 3 µM. Turning to `Cc1ccc(C(=O)Cn2ccnc2)cc1` [QC-165, 2-Imidazol-1-yl-1-p-tolyl-ethanone hydrochloride], the figures for the IC50 at HO-1 (rat spleen) (setting [3]) and on HO-2 (rat brain) (setting [4]) were 17 ± 4 µM and 69 ± 16 µM, respectively. In the same order, the values of `O=C(Cn1ccnc1)c1ccc(-c2ccccc2)cc1` [QC-166, 1-Biphenyl-4-yl-2-imidazol-1-yl-ethanone hydrochloride] are 2.1 ± 0.7 µM and 3 ± 0.7 µM. Turning to `CCOC(=O)Cc1nnn(CC(=O)CCc2ccccc2)n1` [QC-178, [2-(2-Oxo-4-phenyl-butyl)-2H-tetrazol-5-yl]-acetic acid ethyl ester], the IC50 at HO-1 (rat spleen) (setting [5]) and on HO-2 (rat brain) (setting [6]) was above 100 µM throughout.

As for `NC[C@@H]1CO[C@@](CCc2ccccc2)(Cn2ccnc2)O1` [QC-190, {2-[2-(phenyl)-ethyl]-2-imidazol-1-ylmethyl-[1,3]dioxolan-4-yl}-methylamine dihydrochloride], the IC50 at HO-1 (rat spleen) (setting [5]) was 21 ± 3 µM; on HO-2 (rat brain) (setting [6]) it was above 100 µM.

`N#CSC[C@@H]1CO[C@@](CCc2ccc(Cl)cc2)(Cn2ccnc2)O1` [QC-197, 1-{2-[2-(4-Chloro-phenyl)-ethyl]-4-thiocyanatomethyl-[1,3]dioxolan-2-ylmethyl}-1H-imidazole hydrochloride]: the IC50 on HO-1 (rat spleen) (setting [3]) is 3 ± 0.9 µM; at HO-2 (rat brain) (setting [4]), above 100 µM.

For `Brc1ccc(CCCCn2ccnc2)cc1` [QC-199, 1-[4-(4-Bromo-phenyl)-butyl]-1H-imidazole hydrochloride], the IC50 was found to be 0.25 ± 0.02 µM against HO-1 (rat spleen) (setting [3]) and 6.7 ± 0.3 µM on HO-2 (rat brain) (setting [4]). For the compound `O=C(CCc1ccc(O)cc1)Cn1ccnc1` [QC-206, 4-(4-Hydroxyphenyl)-1-(1H-imidazol-1-yl)butan-2-one hydrochloride], the IC50 on HO-1 (rat spleen) (setting [5]) worked out at 382 µM; on HO-2 (rat brain) (setting [6]), 251 µM.

Consider `O=C(CCn1ccnc1)c1ccccc1` [QC-242, 3-(1H-Imidazol-1-yl)-1-phenyl-propan-1-one hydrochloride], for which the IC50 against HO-1 (rat spleen) (setting [3]) is 79 µM; against HO-2 (rat brain) (setting [4]) it was above 100 µM. In the same order, the values of `c1ccc(C2(Cn3ccnc3)OCCO2)cc1` [QC-246, 1-(2-Phenyl-[1,3]dioxolan-2-ylmethyl)-1H-imidazole hydrochloride] are 32 ± 3 µM and above 100 µM. For `c1ccc(C2(Cn3cncn3)OCCO2)cc1` [QC-254, 1-(2-Phenyl-[1,3]dioxolan-2-ylmethyl-1H-[1,2,4]triazole hydrochloride], the IC50 on HO-1 (rat spleen) (setting [3]) was 144 ± 15 µM; on HO-2 (rat brain) (setting [4]) it was above 100 µM. As to “(2R,4R)-2-[2-(4-phenyl)ethyl]-2-[(1H-imidazol-1-yl)methyl]-4-methyl-1,3-dioxolane hydrochloride [QC-35]”, the IC50 at HO-1 (rat spleen) (setting [1]) is 2 ± 1 µM; on HO-2 (rat brain) (setting [2]), above 43 µM.
